Results from US20060040122A1, “Antimicrobial drywall” (Verichem, Inc., priority 2004, published 2006).
Structures can show the parent of a compound that is named as a salt.

Columns and labels:
[1] = tested on: artificial bacterial consortium containing approximately equal numbers of six bacterial strains; test: Synergism dose protocol: growth inhibition of a bacterial consortium in synthetic white water (O.D. 650 nm); assay type: cell-based; conditions: end point 50% inhibition of bacterial growth; pH 5.5; SI less than 1 = synergism
Experimental: O-phenylphenol was tested in combination with DGH. The synergism of the blends was determined using a dose protocol. The combinations were evaluated in synthetic white water with pH value of 5.5. The materials were tested against an artificial bacterial consortium containing approximately equal numbers of six bacterial strains. Although the test strains are representative of organisms present in paper mill systems, the effect is not limited to these bacteria. Two of the strains were Kiebsiella pneumoia (ATCC 13883) and Pseudomonas aeruginosa (ATCC 15442). […] Optical density (O>D>) readings at 650 nm were taken initially (t0) and after 4 hours (t4) of incubation. […]
The inhibition values can be plotted versus dosage for each active and the particular blend. […] In the examples (tables) below, the 50 values are expressed as parts per million (ppm) of active material.
The synergism index (SI) was calculated by the equation below, which was proposed by F. C. […]
QA=quantity of compound A in mixture, producing the end point
Qa=quantity of compound A1 acting alone, producing the end point
QB=quantity of compound B in mixture, producing the end point
Qb=quantity of compound B1 acting alone, producing the end point If SI is less than 1, synergism exists; if SI is greater than 1, antagonism exists; if SI is equal to 1, an additive effect exists.

Penicillium pinophillum = test: Minimum Inhibitory Concentration synergy test on fungi (Kull et al procedure); assay type: cell-based
Source text: (§1) The procedure followed is adapted from and follows very closely, the procedure described in the Kull et al article. The concentrations listed in Table 1 are the Minimum Inhibitory Concentrations.
(§2) In Table 3, synergism test results are summarized for a 1:26 weight ratio of OPP:DGH against three molds, using the same test system as for Table 1
(§3) Synergism has also been shown for combinations of DGH and NaMetam (sodium methyldithiocarbamate). The Table 5 results were obtained in a manner similar to those of Table 1: […]

Aspergillus niger = test: as above; assay type: cell-based
Source text: as §1, §2, §3

Mixed inoculum = test: as above; assay type: cell-based
Source text: as §1, §2, §3

[2] = tested on: Wild strain - Alternaria sp.; test: as above; assay type: cell-based
Source text: as §1, §2, §3

[3] = tested on: Aureobasidium pullulans ATCC 9348, Aspergillus niger ATCC 6275, Penicillium sp. ATCC 9849; test: ASTM Test Method D-3273 00, resistance to surface mold fungi and mildew, in adhesives; conditions: similar tests, same organisms; in Titebond Solvent Free Fast Grab FRP Adhesive and Titebond Solvent Free Subfloor Adhesive
Source text: In addition to experiments as described above, tests were made to compare combinations of DGH (dodecyl guanidine hydrochloride) and OPP against microorganisms known to generate what is commonly known as mildew, when used in caulking and/or adhesive materials used in bathtubs, showers and the like. ASTM (American Society for Testing Materials) Test Method D-3273 00, dealing with resistance to surface mold fungi and mildew was used. Generally, this is an accelerated test calling for a test chamber held at a relative humidity of 95 to 98% and a temperature of 32.5±1° C. (90±2° F.).
Five commercial adhesive compositions known to be susceptible to mildew growth were tested using the microorgainsms Aureobasidium pullulans ATCC 9348, Aspergillus niger ATCC 6275, Penicillium sp. ATCC 9849.
Following this test, a composition comprising 10 g of OPP and 30 g of dodecyl guanidine hydrochloride (DGH) was incorporated into samples of Titebond™ Professional Tub Surround Adhesive at concentrations of 150, 250, 500, 750, and 1000 ppm and the adhesive was tested in the same manner as in Table 2. At 28 days, all of the DGH/OPP compositions were rated at 10.

[4] = Table 1, Minimum Inhibitory Concentration, Penicillium pinophillum
[5] = Table 3, Penicillum pinophillum
[6] = Table 5, Penicillum pinophillum
[7] = Table 1, Minimum Inhibitory Concentration
[8] = Table 1, Minimum Inhibitory Concentration, Mixed inoculum
[9] = Table 1, Minimum Inhibitory Concentration, Wild strain - Alternaria sp.
[10] = Table 3, Wild strain - Atlernaria sp.
[11] = Table 5, Wild Strain - Alternaria sp.

Molecule: CCCCCCCCCCCCNC(=N)N [DGH, Dodecyl guanidine hydrochloride]
- Synergy Index [1]: 1.00
- Concentration of DGH alone (Penicillium pinophillum; [4]): 62.5
- DGH conc (ppm) alone (Penicillium pinophillum; [5]): 62.5 ppm
- Conc. Of DGH alone (Penicillium pinophillum; [6]): 62.5
- Concentration of DGH alone (Aspergillus niger; [7]): 62.5
- DGH conc (ppm) alone (Aspergillus niger; Table 3): 62.5 ppm
- Conc. Of DGH alone (Aspergillus niger; Table 5): 62.5
- Concentration of DGH alone (Mixed inoculum; [8]): 125
- DGH conc (ppm) alone (Mixed inoculum; Table 3, Mixed inoculum): 125 ppm
- Conc. Of DGH alone (Mixed inoculum; Table 5, Mixed Inoculum): 62.5
- Concentration of DGH alone [2, 9]: 125
- DGH conc (ppm) alone [2, 10]: 125 ppm
- Conc. Of DGH alone [2, 11]: 62.5

Molecule: CNC(=S)[S-].[Na+] [NaMetam, sodium methyldithiocarbamate]
- Conc of NaMetam alone (Penicillium pinophillum; [6]): 31.2
- Conc of NaMetam alone (Aspergillus niger; Table 5): 31.2
- Conc of NaMetam alone (Mixed inoculum; Table 5, Mixed Inoculum): 250
- Conc of NaMetam alone [2, 11]: 125

Molecule: [Na+].[O-]c1ccccc1-c1ccccc1 [NaOPP, sodium orthophenylphenate]
- Synergy Index [1]: 1.00

Molecule: Oc1ccccc1-c1ccccc1 [OPP, o-phenylphenol]
- Concentration of OPP alone (Penicillium pinophillum; [4]): 15.6
- OPP conc (ppm) alone (Penicillium pinophillum; [5]): 15.6 ppm
- Concentration of OPP alone (Aspergillus niger; [7]): 15.6
- OPP conc (ppm) alone (Aspergillus niger; Table 3): 15.6 ppm
- Concentration of OPP alone (Mixed inoculum; [8]): 15.6
- OPP conc (ppm) alone (Mixed inoculum; Table 3, Mixed inoculum): 15.6 ppm
- Concentration of OPP alone [2, 9]: 15.6
- OPP conc (ppm) alone [2, 10]: 15.6 ppm

Molecule: dodecyl guanidine acetate [DGA]
- mildew inhibition [3]: effective mildew inhibitors
